Experimental data as given in US12704506B2, “Microbial analysis without cell purification” (First Light Diagnostics, Inc., priority 2018, dated 2026).
Like-named read-outs stand apart in the source and are kept apart here.

How the values were obtained:
[1] = test system: K. pneumonaie strain in clinical urine sample BIUR0084; experiment: automated MultiPath AST cartridge on clinical urine, Example 8; assay type: cell-based, K. pneumoniae; details: for sensitive/resistant call by MulitPath: clinical urine BIUR0084, 4 h growth, fold growth value of 2; for growth call at all antibiotic concentrations (MulitPath assay): clinical urine BIUR0084, fold growth value of 2, 4 h
[2] = test system: E. coli; parameters: key: previously determined antibiotic resistance (shown with “X”); details: cited from earlier work
[3] = test system: K. oxytoca; parameters: key: previously determined antibiotic resistance (shown with “X”); details: cited from earlier work
[4] = test system: P. mirabilis; parameters: key: previously determined antibiotic resistance (shown with “X”); details: cited from earlier work
[5] = test system: K. pneumoniae; parameters: key: previously determined antibiotic resistance (shown with “X”); details: cited from earlier work
[6] = test system: P. aeruginosa; parameters: key: previously determined antibiotic resistance (shown with “X”); details: cited from earlier work
[7] = test system: E. coli BAA-2469; parameters: unit not given beside the values; details: E. coli BAA-2469, regardless of the amount of S. aureus ATCC 25923 cells
[8] = test system: E. coli BAA-2469; parameters: unit not given beside the values
Text: Comparison Method: Results for the novel assay method described here were compared to broth microdilutions (BMD) performed according the […] 2018.

| Compound | sensitive/resistant call by MulitPath [1] | growth call at all antibiotic concentrations (MulitPath assay) [1] | previously determined antibiotic resistance ([2]; E. coli ATCC25922) | previously determined antibiotic resistance ([2]; E. coli CDC0020) | previously determined antibiotic resistance ([2]; E. coli CDC0084) | previously determined antibiotic resistance ([3]; K. oxytoca CDC0028) | previously determined antibiotic resistance ([3]; K. oxytoca CDC0071) | previously determined antibiotic resistance ([3]; K. oxytoca CDC0147) | previously determined antibiotic resistance ([4]; P. mirabilis ATCC7002) | previously determined antibiotic resistance ([4]; P. mirabilis CDC0029) | previously determined antibiotic resistance ([4]; P. mirabilis CDC0059) | previously determined antibiotic resistance ([4]; P. mirabilis CDC0155) | previously determined antibiotic resistance ([4]; P. mirabilis CDC0156) | previously determined antibiotic resistance ([4]; P. mirabilis CDC0159) | previously determined antibiotic resistance ([5]; K. pneumoniae ATCC13883) | previously determined antibiotic resistance ([5]; K. pneumoniae CDC0010) | previously determined antibiotic resistance ([5]; K. pneumoniae CDC0016) | previously determined antibiotic resistance ([5]; K. pneumoniae CDC0107) | previously determined antibiotic resistance ([5]; K. pneumoniae CDC0126) | previously determined antibiotic resistance ([6]; P. aeruginosa ATCC27853) | also measured |
| --- | --- | --- | --- | --- | --- | --- | --- | --- | --- | --- | --- | --- | --- | --- | --- | --- | --- | --- | --- | --- | --- |
| Cc1nnc(SCC2=C(C(=O)O)N3C(=O)[C@@H](NC(=O)Cn4cnnn4)[C@H]3SC2)s1 [Cefazolin] | resistant | growth |  |  |  |  |  |  |  |  |  |  |  |  |  |  |  |  |  |  |  |
| CC(C)(O/N=C(\C(=O)N[C@@H]1C(=O)N2C(C(=O)[O-])=C(C[n+]3ccccc3)CS[C@H]12)c1csc(N)n1)C(=O)O [Ceftazidime] |  |  | X | X | X | X | X | X | X | X | X | X | X | X | X | X | X | X | X | X | previously determined antibiotic resistance ([2]; E. coli CDC0067): X; previously determined antibiotic resistance ([2]; E. coli CDC0086): X; previously determined antibiotic resistance ([2]; E. coli CDC0350): X; previously determined antibiotic resistance ([5]; K. pneumoniae CDC0041): X; previously determined antibiotic resistance ([5]; K. pneumoniae CDC0160): X; previously determined antibiotic resistance ([6]; P. aeruginosa CDC0105): X; previously determined antibiotic resistance ([6]; P. aeruginosa CDC0111): X; previously determined antibiotic resistance ([6]; P. aeruginosa CDC0242): X; previously determined antibiotic resistance ([6]; P. aeruginosa CDC0251): X; previously determined antibiotic resistance ([6]; P. aeruginosa CDC0253): X |
| O=C(O)c1cn(C2CC2)c2cc(N3CCNCC3)c(F)cc2c1=O [Ciprofloxacin] |  |  | X |  |  | X | X | X | X | X | X | X | X | X | X |  | X |  | X | X | previously determined antibiotic resistance ([2]; E. coli BAA-2452): X; previously determined antibiotic resistance ([2]; E. coli BAA-2469): X; previously determined antibiotic resistance ([2]; E. coli BAA-2471): X; previously determined antibiotic resistance ([2]; E. coli CDC0017): X; previously determined antibiotic resistance ([2]; E. coli CDC0019): X; previously determined antibiotic resistance ([5]; K. pneumoniae CDC0034): X; previously determined antibiotic resistance ([5]; K. pneumoniae CDC0076): X; previously determined antibiotic resistance ([5]; K. pneumoniae CDC0117): X; previously determined antibiotic resistance ([6]; P. aeruginosa CDC0251): X; previously determined antibiotic resistance ([6]; P. aeruginosa CDC0253): X; previously determined antibiotic resistance ([6]; P. aeruginosa CDC0259): X; previously determined antibiotic resistance ([6]; P. aeruginosa CDC0261): X; previously determined antibiotic resistance ([6]; P. aeruginosa CDC0262): X |
| C[C@@H](O)[C@H]1C(=O)N2C(C(=O)O)=C(S[C@@H]3CN[C@H](C(=O)N(C)C)C3)[C@H](C)[C@H]12 [Meropenem] |  |  | X | X |  | X | X | X | X | X | X | X | X | X | X | X | X |  |  |  | previously determined antibiotic resistance ([2]; E. coli CDC0001): X; previously determined antibiotic resistance ([2]; E. coli CDC0006): X; previously determined antibiotic resistance ([2]; E. coli CDC0085): X; previously determined antibiotic resistance ([2]; E. coli CDC0114): X; previously determined antibiotic resistance ([5]; K. pneumoniae CDC0034): X; previously determined antibiotic resistance ([5]; K. pneumoniae CDC0043): X; previously determined antibiotic resistance ([5]; K. pneumoniae CDC0076): X; previously determined antibiotic resistance ([5]; K. pneumoniae CDC0080): X; previously determined antibiotic resistance ([6]; P. aeruginosa CDC0105): X; previously determined antibiotic resistance ([6]; P. aeruginosa CDC0111): X; previously determined antibiotic resistance ([6]; P. aeruginosa CDC0232): X; previously determined antibiotic resistance ([6]; P. aeruginosa CDC0242): X; previously determined antibiotic resistance ([6]; P. aeruginosa CDC0247): X |
| O=C1CN(/N=C/c2ccc([N+](=O)[O-])o2)C(=O)N1 [Nitrofurantoin] |  |  |  |  |  |  |  |  |  |  |  |  |  |  |  |  |  |  |  |  | MIC, novel 4-hour AST assay (MultiPath) [7]: 8; MIC, CLSI-like broth microdilution ([8]; E. coli BAA-2469, in the absence of S. aureus): 8; MIC, CLSI-like broth microdilution ([8]; E. coli BAA-2469, with a 100-fold excess of S. aureus ATCC 25923): 32 |
| Trimethoprim/Sulfamethoxazole | resistant | growth | X |  | X | X | X | X | X | X | X | X | X | X | X | X | X | X | X |  | previously determined antibiotic resistance ([2]; E. coli BAA-2469): X; previously determined antibiotic resistance ([2]; E. coli BAA-2471): X; previously determined antibiotic resistance ([2]; E. coli CDC0017): X; previously determined antibiotic resistance ([2]; E. coli CDC0019): X; previously determined antibiotic resistance ([5]; K. pneumoniae CDC0117): X |
